US12180138B2, “Lipid nanoparticle compositions for delivering circular polynucleotides” (Orna Therapeutics, Inc., priority 2021, dated 2024)

Tests used:
splenic T cells = test: mOX40L expression in splenic T cells after IV LNP-circular RNA; format: in vivo, C57BL/6 mice; details: 1 mg/kg intravenously, 24 hours
Protocol: The ionizable lipid:helper lipid: cholesterol:PEG-lipid molar ratio of these LNPs was 50:10:38.5:1.5. C57BL/6 female mice (6-8 weeks, n=4) were dosed at 1 mg/kg intravenously. At 24 hours, the spleen from the mice were collected for flow cytometry analysis, tested for weight loss and measured for serum alanine aminotransferase (ALT) after blood collection. mOX40L expression was measured in splenic T cells.

[1] = test system: splenic immune cells (T cells, myeloid cells, B cells, NK cells); test: mOX40L expression in splenic immune cells after IV LNP-circular RNA (flow cytometry); format: in vivo, C57BL/6 mice; details: 1 mg/kg intravenously, 24 hours; IL:P 5.7; vs Lipid 15 of Table 10f
Protocol: The ionizable lipid:helper lipid:cholesterol:PEG-lipid molar ratio of these LNPs was 50:10:38.5:1.5. Dialysis of the LNPs were performed using PBS. C57BL/6 female mice (6-8 weeks, n=4) were dosed at either LNP comprising Lipid 1 of Table 10e or the Lipid 15 of Table 10f at 1 mg/kg intravenously. At 24 hours, the spleen from the mice were collected for flow cytometry analysis. mOX40L transfection of Lipid 1 of Table 10e and Lipid 15 of Table 10f were compared in T cells, myeloid cells, B cells, and NK cells.

With `CCCCCCCCCCCCC(O)CN(CCCO)CCCCCCCC(=O)OC(CCCCCCCC)CCCCCCCC` (centres unmarked) [Lipid 1 of Table 10e, heptadecan-9-yl 8-((3-hydroxypropyl)(2-hydroxytetradecyl)amino)octanoate] the “mOX40L expression in splenic T cells” value (splenic T cells) was “expression of mOX40L in splenic T cells” and the “mOX40L transfection in splenic immune cells” value [1] was “comparable or higher levels of mOX40L transfection”.
